Read-outs that look alike come from different tables or passages of the source.
Test system: PG nanodiscs
Assay: Phospholipid nanodisc 1H NMR CPMG coordination assay, PG nanodiscs
Format: binding
Conditions: SSA 100 µM
Source text: Finally, to establish how any single SSA structural variation affects the coordination of an individual salt component to the surface of a phospholipid membrane, the binding of the anionic and cationic components of SSAs 5–12 with nanodiscs comprised of PC, PG or the PE : PG mix (Table 2) was studied. Nanodiscs were synthesised from synthetic vesicles of the relevant phospholipid composition. For full synthetic procedures and nanodisc characterisation please see ESI (Section 13). ^†[34,35]
Styrene-maleic acid (SMA) nanodiscs are small biomimetic scaffolds with a hydrodynamic diameter ≈ 10 nm. They consist of a single disc-shaped planar phospholipid bilayer, ‘belted’ in this instance with a synthetic SMA co-polymer. Here nanodiscs of a specific phospholipid composition were titrated against a solution of SSAs 5–12 (0.10 mM) in a sodium phosphate buffer (20 mM) with NaCl (20 mM) at pH 7.4. This solution was supplemented with 5% D2O, to enable NMR locking and 4,4-dimethyl4-silapentane-1-sulfonic acid (DSS – 0.02 mM) to act as an internal standard. The nanodiscs were then titrated against the SSA, while the SSA concentration was maintained as constant, well below the CMC (Table 3).[38] A 1D ^1H NMR with a Carr–Purcell–Meiboom–Gill sequence (CPMG) filter (300 ms),[36,48] modified with a watergate element was then obtained for each experimental data point. The watergate element was used to allow suppression of the water signal, whereas the CPMG filter enabled the suppression of those resonances from molecular species with long correlation times, which in this instance correlate to the signals of those SSAs coordinated to the nanodisc, rather than those which exist as free species in solution. Comparative integration of the resonances corresponding to the SSA cation or anion, standardised against the DSS internal standard, permits the percentage of the individual SSA components coordinated to the phospholipid nanodisc to be established with respect to increasing nanodisc concentration.
However, when considering the 1/EC50 for the SSA cationic component (Fig. 10b), the reverse is true. This is perhaps expected, but nevertheless despite the identical experimental conditions, including the same TBA counter cation across SSAs 5–12, there is a marked difference in the 1/EC50 obtained, where the only difference is the SSA anion present. This is most noticeable for the series of SSA titrations involving the PE : PG mix (Table 2) nanodiscs. The only variation within this set of titrations is the structure of the SSA anion; we therefore conclude that the SSA anion is influencing SSA cation nanodisc coordination events. This observation provides evidence for the presence of further complex interactions informing SSA:nanodisc coordination processes. […]
Data were acquired in endpoint mode. All experiments were repeated in triplicate […]
Nanodisc preparation: Lipid films were resuspended in Buffer (20 mM NaCl, 20 mM NaH 2PO4, pH 7.4) and sonicated for 1 hour, at a 5:1 ratio, SMA was added and incubated at 37 °C for 1 hour. Dialysed overnight in 5 L of the same buffer in 10 KDa cut-off dialysis tubing, concentrated, and underwent gel filtration size exclusion chromatography on a Superdex 200 10/300 GL column (GE Healthcare) in the same buffer, whilst monitoring absorbance at 260 nm. Nanodisc quantification carried out via monitoring of absorbance at 260 nm using a calibration curve.2
1H NMR CPMG: 1H NMR CPMG3,4 spectra were obtained with a Bruker Avance III […] spectrometer equipped with a TCIP cryoprobe at 298 K. Samples were supplemented with 5 % D 2O and 0.02 mM 4,4-dimethyl4-silapentane-1-sulfonic acid (DSS). The standard zgprcpmg pulse sequence from the Bruker library was modified with a watergate element to allow suppressi on of the water signal and was used for all experiments. Although this sequence is readily obtainable, we are happy to provide it on request. The P1 pulses were 9 µs at a power of 7.9 W. Presaturation was applied between […]

[1] = concentration of nanodisc coordinating 50 % of the SSA anion, Hill Plot fit, Vmax fixed 100 %, read-out: EC50 PG, anionic SSA component
[2] = concentration of nanodisc coordinating 50 % of the SSA cation, Hill Plot fit, Vmax fixed 100 %, read-out: EC50 PG, cationic SSA component

| SMILES | EC50 (experimental endpoint 4.00 µM nanodisc, read-out: EC50 PG, cationic SSA component) [µM] | EC50 [1] [µM] | EC50 [2] [µM] |
| --- | --- | --- | --- |
| O=C(NCS(=O)(=O)O)Nc1ccccc1-c1nc2ccccc2s1 [SSA 5] | > 4 |  |  |
| Cc1ccc2nc(-c3ccc(NC(=O)NCS(=O)(=O)O)cc3)sc2c1 [SSA 6] |  | 0.82 | 2.86 |
| Cc1ccc2nc(NC(=O)NCS(=O)(=O)O)sc2c1 [SSA 7] |  |  | 3.42 |
| O=C(NCS(=O)(=O)O)Nc1ccc(-c2nc3ccccc3s2)cc1 [SSA 8] |  |  | 3.11 |
| Cc1ccc2nc(-c3ccc(NC(=O)NCCC(=O)O)cc3)sc2c1 [SSA 9] |  | 1.07 | 2.69 |
| Cc1ccc2nc(-c3ccc(NC(=O)NCCCS(=O)(=O)O)cc3)sc2c1 [SSA 10] |  | 0.5 | 1.16 |
| Cc1ccc2nc(-c3ccc(NC(=O)NCC(=O)O)cc3)sc2c1 [SSA 11] |  | 2.1 | 2.82 |
| Cc1ccc2nc(-c3ccc(NC(=S)NCS(=O)(=O)O)cc3)sc2c1 [SSA 12] |  | 0.29 | 0.9 |

Source: publication PMC9400670, “Establishing the selective phospholipid membrane coordination, permeation and lysis properties for a series of ‘druggable’ supramolecular self-associating antimicrobial amphiphiles” (Chemical Science, 2022)
